A word on the Kd: it is the concentration at which binding is half-saturated. A word on the melting point: it is the temperature, or range, at which the solid turns liquid. Broadly, the inhibition is the drop in the measured response relative to a control, in per cent.

The target in one data set is human IKCa1 channel (Homo sapiens, UniProt O15554). Nature of the data set: cell-based. The note with it: for IKCa1 inhibition compared with clotrimazole: refers to TABLE 8. The protocol: COS-7 cells, maintained in Dulbecco's modified Eagle's medium (DMEM) containing 10% heat-inactivated fetal calf serum, 4 mM L-glutamine and 1 mM Na^+ pyruvate, were transiently transfected with hlKCa1.
Electrophysiological experiments were carried out in the whole-cell configuration of the patch-clamp technique using an EPC-9 amplifier (HEKA Elektronik, Lambrecht Germany) interfaced to a computer running acquisition and analysis software (Pulse and Pulsfit; HEKA Elektronik). Pipettes were pulled from soft glass capillaries, coated with Sylgard (Dow-Corning, Midland, Mich.), and fire polished to resistances of 2.0–4.5 MΩ measured in the bath. COS-7 cells were trypsinized and plated on glass coverslips 3 h before measurement. […] To prevent activation of the native chloride channels in COS-7 cells an aspartate Ringer solution was used as an external solution (160 mM Na^+ aspartate, 4.5 mM KCl, 2 mM CaCl2, 1 mM MgCl2, 5 mM HEPES, adjusted to pH 7.4 with NaOH, with an osmolarity of 290–310 mosM). 200 ms voltage ramps from −120 mV to 40 mV every 10 s were used. The holding potential in all experiments was −80 mV. Series resistance compensation was not employed. The reduction of slope conductance at −80 mV was used to determine the Kd-value by fitting the values to the Hill equation with a Hill coefficient of unity.

The target in the next data set is CYP3A4 (Homo sapiens, UniProt P08684). Nature of the data set: in vitro. The note with it: human. The protocol: The test substances shown in Table 8 were evaluated for their inhibitory effect on the catalytic activity of human cytochrome P450 enzyme. Cytochrome P450 3A4 (CYP3A4) is involved in many drug-drug interactions and in many other pathways in the body including the catabolism of steroids and xenobiotics. Inhibition of this enzyme was measured in 96 well plates with 7-benzyloxy-4-trifluoro-methylcoumarin (BFC) as the substrate and cDNA-derived enzymes in microsomes prepared from baculovirus-infected insect cells.
The inhibition study consisted of the determination of inhibition by the test substance on CYP3A4 catalytic activity. […] The compounds were prepared as 10 mM stock solutions in acetonitrile. Metabolism of the model substrate was assayed by the production of 7-hydroxy-4-trifluoromethylcoumarin metabolite. The metabolite was detected by fluorescence.
Table 10 below provides a list of the name of enzymes examined, the catalog number of the microsomes used as a source of the enzyme, the concentration of the model substrate used, the amount of enzyme used, the final buffer concentration, and the positive control compound.
Assays were conducted in 96 well microtiter plates. The BFC substrate was initially prepared in acetonitrile. […] Six wells were used for one test. […] For the positive controls, 12 wells in a row were used for one test. The positive control inhibitor/enzyme combination was examined in duplicate rows. Wells 1 to 8 contained serial 1:3 dilutions of the inhibitors. The highest inhibitor concentration were as described in the table above. Wells 9 and 10 contained no inhibitor and wells 11 and 12 were blanks for background fluorescence (stop solution added before the enzyme).
After buffer, cofactors and inhibitor addition, the plates were pre-warmed to 37° C. Incubations were initiated by the addition of pre-warmed enzyme and substrate. The final cofactor concentrations were 1.3 mM NADP, 3.3 mM glucose-6-phosphate and 0.4 U/ml glucose-6-phosphate dehydrogenase. The final incubation volume was 0.2 ml. Incubations were carried out for 30 minutes [CYP3A4 (BFC)] and stopped by the addition of 0.075 ml of 80% acetonitrile-20% 0.5M Tris. Fluorescence per well was measured using a BMG FLUOstar fluorescence plate reader. The BFC metabolite 7-hydroxy-4-trifluoromethyl-coumarin was measured using an excitation wavelength of 410 nm and emission wavelength of 538 nm.

[1] abbreviates: hIKCa1 in COS-7 cells, reduction of slope conductance at −80 mV, 1 μM free Ca++ in pipette.

Molecules are shown by their SMILES. Read-outs that look alike come from different tables or passages of the source.

human IKCa1 channel, sequence (O15554 whole entry): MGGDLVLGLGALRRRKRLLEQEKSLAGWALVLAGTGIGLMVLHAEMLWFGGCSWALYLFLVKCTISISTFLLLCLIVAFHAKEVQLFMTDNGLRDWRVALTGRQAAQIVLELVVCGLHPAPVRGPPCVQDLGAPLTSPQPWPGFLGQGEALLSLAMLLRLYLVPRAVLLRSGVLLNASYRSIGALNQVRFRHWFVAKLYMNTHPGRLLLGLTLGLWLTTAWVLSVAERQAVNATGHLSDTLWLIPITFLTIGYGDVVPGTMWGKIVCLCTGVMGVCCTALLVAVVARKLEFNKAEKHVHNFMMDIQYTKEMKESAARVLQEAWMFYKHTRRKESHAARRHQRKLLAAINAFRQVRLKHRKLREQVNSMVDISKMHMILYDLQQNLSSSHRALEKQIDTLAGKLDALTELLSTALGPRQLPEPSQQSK
CYP3A4, sequence (P08684 whole entry): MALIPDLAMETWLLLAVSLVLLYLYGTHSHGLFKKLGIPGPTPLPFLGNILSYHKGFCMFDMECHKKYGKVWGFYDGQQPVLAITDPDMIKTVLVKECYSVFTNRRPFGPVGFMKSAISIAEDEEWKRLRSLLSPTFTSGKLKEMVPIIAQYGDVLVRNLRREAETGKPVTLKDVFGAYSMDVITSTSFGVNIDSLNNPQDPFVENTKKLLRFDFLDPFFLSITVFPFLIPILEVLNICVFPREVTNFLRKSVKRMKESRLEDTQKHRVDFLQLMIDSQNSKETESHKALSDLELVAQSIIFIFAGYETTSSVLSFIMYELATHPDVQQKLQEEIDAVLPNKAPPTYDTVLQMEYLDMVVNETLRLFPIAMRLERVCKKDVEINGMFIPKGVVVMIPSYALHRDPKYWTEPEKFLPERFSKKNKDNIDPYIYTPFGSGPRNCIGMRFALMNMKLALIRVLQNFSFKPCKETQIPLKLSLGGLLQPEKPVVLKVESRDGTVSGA

`c1ccc(C(c2ccccc2)(c2ccccc2)n2cccc2)cc1` [Compound T10, 1-Trityl-1H-pyrrole] registered a melting point of 243 °C. For the same compound, at human IKCa1 channel, the affinity, expressed as Kd, was 28000 nM.
For the compound `OC(c1ccccc1)(c1ccccc1)c1ccccc1F` [Compound T36, (2-Fluorophenyl)diphenyl methanol], the melting point worked out at 116 °C. On human IKCa1 channel, the affinity, expressed as Kd, was 700 nM.
For `Clc1ccccc1C(NCCNC(c1ccccc1)(c1ccccc1)c1ccccc1Cl)(c1ccccc1)c1ccccc1` [Compound T48, N,N-1,2-[(2-Chlorophenyl)diphenylmethyl]-amino ethane], the melting point was determined as 228 °C. The same compound displayed a dissociation constant Kd on human IKCa1 channel of 30000 nM.
`OC(c1ccccc1)(c1cccs1)c1cccs1` [Compound T35, Di-(2-thienyl)phenyl methanol] returned a melting point of 86 °C. The compound further returned a Kd on human IKCa1 channel of 9000 nM.
Compound `OC(c1ccccc1)(c1ccccc1)c1ccc(F)cc1` [Compound T12, (4-Fluorophenyl)diphenyl methanol] came in with a melting point of 120.5 °C. At human IKCa1 channel, this compound came in with a Kd of 700 nM.
The compound `FC(F)(F)c1ccccc1C(c1ccccc1)(c1ccccc1)n1cccn1` [Compound T58, 1-{Diphenyl[2-(trifluoromethyl)-phenyl]methyl}-1H-pyrazole] gave a Kd on human IKCa1 channel of 5000 nM. Further, the inhibition at 30 min, 10 μM at CYP3A4 is -26%.
In turn, `OC(c1ccccc1)(c1ccccc1)c1cccs1` [Compound T9, (2-Thienyl)diphenyl methanol] showed a melting point of 129 °C. The Kd on human IKCa1 channel was determined as 1500 nM.
Compound `NC(=O)NC(c1ccccc1)(c1ccccc1)c1ccc(F)cc1` [Compound T31, N-[(4-Fluorophenyl)diphenylmethyl] urea] yielded a melting point of 222 °C. This compound also gave a Kd on human IKCa1 channel of 8000 nM.
Regarding `c1ccc(C(c2ccccc2)(c2ccccc2)n2cccn2)cc1` [Compound T11, 1-Trityl-1H-pyrazole], the melting point amounted to 202 °C. This compound also came in with a Kd at human IKCa1 channel of 2500 nM.
For `CC(=O)NC(c1ccccc1)(c1ccccc1)c1ccccc1F` [Compound T76, N-(2-Fluorophenyl)diphenylmethyl acetamide] the same measures were 215 °C and 1200 nM.
The compound `NC(=O)NC(c1ccccc1)(c1ccccc1)c1ccccc1` [Compound T24, N-trityl urea] gave a melting point of 238 °C. Also, the Kd at human IKCa1 channel amounted to 8000 nM.
`NC(=O)NC(c1ccccc1)(c1ccccc1)c1ccccc1F` [Compound T45, N-[(2-Fluorophenyl)diphenylmethyl] urea] gave a melting point of 225 °C. Besides, the Kd on human IKCa1 channel is 1000 nM.
On to `CCOC(=O)C(C(=O)OCC)C(c1ccccc1)(c1ccccc1)c1ccccc1` [Compound T74], for which, on human IKCa1 channel (read-out: Kd for block of IKCa1, hIKCa1 in COS-7 cells, reduction of slope conductance at −80 mV, 1 μM free Ca++ in pipette), the Kd was 600 nM. Further, on CYP3A4, the inhibition at 30 min, 10 μM amounted to 4%.
`OC(c1ccccc1)(c1ccccc1)c1cccc(Cl)c1` [Compound T2, (3-Chlorophenyl)diphenyl methanol]: the melting point amounted to 53 °C. Besides, the Kd on human IKCa1 channel is 530 nM.
For `CC(=O)NC(c1ccccc1)(c1ccccc1)c1ccccc1C(F)(F)F` [Compound T83, N-(2-Trifluoromethylphenyl)diphenylmethyl acetamide], the melting point amounted to 185 °C. This compound also showed a dissociation constant (Kd) at human IKCa1 channel of 1500 nM.
Compound `OC(c1ccccc1)(c1ccc(Cl)cc1)c1ccc(Cl)cc1` [Compound T4, Bis-(4-chlorophenyl)phenyl methanol] returned a melting point of 86 °C. Also, at human IKCa1 channel (setting [1]), the “Kd for block of IKCa1” value is “No effect at 1 μM”.
The compound `OC(c1ccccc1)(c1ccccc1)c1ccccc1Cl` [Compound T3, (2-Chlorophenyl)diphenyl methanol] had a melting point of 91 °C. This compound displayed a Kd at human IKCa1 channel of 520 nM. The inhibition at 30 min, 10 μM at CYP3A4 is -30.5%.
Turning to `N#CC(c1ccccc1)(c1ccccc1)c1ccccc1F` [Compound T40, 2-(2-Fluorophenyl)2,2-diphenylacetonitrile], the melting point turned out to be 144 °C. On human IKCa1 channel, the Kd was determined as 60 nM and the “IKCa1 inhibition compared with clotrimazole” value is recorded as “more potent inhibitors of IKCa1 channels than clotrimazole”. On CYP3A4, the inhibition at 30 min, 10 μM came out at 9%.
Compound `Clc1ccccc1C(NCCCNC(c1ccccc1)(c1ccccc1)c1ccccc1Cl)(c1ccccc1)c1ccccc1` [Compound T49, N,N-1,3-[(2-Chlorophenyl)diphenylmethyl]-amino propane] showed a melting point of 198 °C. Moreover, binding on human IKCa1 channel was characterised by a dissociation constant (Kd) of 32000 nM.
`Clc1ccccc1C(Nc1ccncc1)(c1ccccc1)c1ccccc1` [Compound T67, N-[(2-Chlorophenyl)diphenylmethyl]-N-(4-pyridyl)amine]: at human IKCa1 channel, the affinity, expressed as Kd, was 30000 nM. In addition, the inhibition at 30 min, 10 μM at CYP3A4 worked out at 74%.
`NC(=O)NC(c1ccccc1)(c1ccccc1)c1ccc(Cl)cc1` [Compound T29, N-[(4-Chlorophenyl)diphenylmethyl] urea]: the melting point was found to be 228 °C. For the same compound, binding on human IKCa1 channel was characterised by a dissociation constant (Kd) of 15000 nM.
`N#CC(c1ccccc1)(c1ccccc1)c1ccccc1Cl` [Compound T39, 2-(2-Chlorophenyl)2,2-diphenylacetonitrile]: on human IKCa1 channel, binding was put at a Kd of 60 nM and the “IKCa1 inhibition compared with clotrimazole” value is reported as “more potent inhibitors of IKCa1 channels than clotrimazole”. Also, the inhibition at 30 min, 10 μM on CYP3A4 was found to be 10%.
In turn, `c1ccc(C(c2ccccc2)(c2ccccc2)N2CCCC2)cc1` [Compound T7, 1-Tritylpyrrolidine] yielded a melting point of 126 °C. At human IKCa1 channel, this compound gave a Kd of 30000 nM.
On to `N#CC(c1ccccc1)(c1ccccc1)c1ccc(F)cc1` [Compound T27, 2-(4-Fluorophenyl)2,2-diphenylacetonitrile], for which the melting point stood at 76 °C. Also, at human IKCa1 channel, the Kd worked out at 800 nM.
`c1ccc(C(NCc2ccc(CNC(c3ccccc3)(c3ccccc3)c3ccccc3)cc2)(c2ccccc2)c2ccccc2)cc1` [Compound T23, 1,4-Ditritylaminomethyl benzene] had a melting point of 201 °C. For the same compound, the “Kd for block of IKCa1” value at human IKCa1 channel (setting [1]) is reported as “No effect at 1 μM”.
For `Clc1ccccc1C(Nc1nccs1)(c1ccccc1)c1ccccc1` [Compound T66, N-[(2-Chlorophenyl)diphenylmethyl]-N-(1,3-thiazol-2yl)amine], at human IKCa1 channel, the Kd is 15000 nM. The inhibition at 30 min, 10 μM at CYP3A4 was 86.5%.
The compound `CC(=O)NC(c1ccccc1)(c1ccccc1)c1ccccc1Cl` [Compound T75, N-(2-chlorophenyl)diphenylmethyl acetamide] registered a Kd at human IKCa1 channel of 1200 nM. Further, the inhibition at 30 min, 10 μM on CYP3A4 was -54%.
In turn, `OC(c1ccccc1)(c1ccccc1)c1ccc(Cl)cc1` [Compound T1, (4-Chlorophenyl)diphenyl methanol] had a melting point of 82 °C. In addition, on human IKCa1 channel, the Kd worked out at 550 nM.

Source of the values: patent publication US7235577B1 (priority 2000, dated 2007).
